Earlier results as cited in article PMC11979273, “A phase I study to evaluate the safety, tolerability, and pharmacokinetics of HEC113995PA·H2O, a novel dual-acting serotonergic antidepressant, in healthy subjects” (Frontiers in Pharmacology, 2025).

Settings: cited from earlier work

In the case of N#Cc1ccc2[nH]cc(CCCCN3CCN(c4ccc5oc(C(N)=O)cc5c4)CC3)c2c1 [Vilazodone], the “AUC0-∞” value (20 mg dose) is listed as 502 ng·h/mL, the Cmax (20 mg dose) is listed as 28.5 ng/mL and the “Tmax (peak)” value (in vivo) is listed as 5 h. The t1/2 (in vivo) was 24.1 h.
